ChEMBL document CHEMBL3392967, “Phosphatidylinositol 3-Kinase (PI3K) and phosphatidylinositol 3-kinase-related kinase (PIKK) inhibitors: importance of the morpholine ring” (J Med Chem, 2015)
Where “and” joins values, the source holds several entries; their conditions need not be identical. Identical values can stand only once.

Key:
[1] = biological target: Serine/threonine-protein kinase mTOR (Rattus norvegicus, UniProt P42346); assay: Inhibition of rat derived mTOR using [gamma32P]ATP
[2] = biological target: T1, Phosphatidylinositol 4,5-bisphosphate 3-kinase catalytic subunit delta isoform (Homo sapiens, UniProt O00329)
T1 sequence (O00329 whole entry): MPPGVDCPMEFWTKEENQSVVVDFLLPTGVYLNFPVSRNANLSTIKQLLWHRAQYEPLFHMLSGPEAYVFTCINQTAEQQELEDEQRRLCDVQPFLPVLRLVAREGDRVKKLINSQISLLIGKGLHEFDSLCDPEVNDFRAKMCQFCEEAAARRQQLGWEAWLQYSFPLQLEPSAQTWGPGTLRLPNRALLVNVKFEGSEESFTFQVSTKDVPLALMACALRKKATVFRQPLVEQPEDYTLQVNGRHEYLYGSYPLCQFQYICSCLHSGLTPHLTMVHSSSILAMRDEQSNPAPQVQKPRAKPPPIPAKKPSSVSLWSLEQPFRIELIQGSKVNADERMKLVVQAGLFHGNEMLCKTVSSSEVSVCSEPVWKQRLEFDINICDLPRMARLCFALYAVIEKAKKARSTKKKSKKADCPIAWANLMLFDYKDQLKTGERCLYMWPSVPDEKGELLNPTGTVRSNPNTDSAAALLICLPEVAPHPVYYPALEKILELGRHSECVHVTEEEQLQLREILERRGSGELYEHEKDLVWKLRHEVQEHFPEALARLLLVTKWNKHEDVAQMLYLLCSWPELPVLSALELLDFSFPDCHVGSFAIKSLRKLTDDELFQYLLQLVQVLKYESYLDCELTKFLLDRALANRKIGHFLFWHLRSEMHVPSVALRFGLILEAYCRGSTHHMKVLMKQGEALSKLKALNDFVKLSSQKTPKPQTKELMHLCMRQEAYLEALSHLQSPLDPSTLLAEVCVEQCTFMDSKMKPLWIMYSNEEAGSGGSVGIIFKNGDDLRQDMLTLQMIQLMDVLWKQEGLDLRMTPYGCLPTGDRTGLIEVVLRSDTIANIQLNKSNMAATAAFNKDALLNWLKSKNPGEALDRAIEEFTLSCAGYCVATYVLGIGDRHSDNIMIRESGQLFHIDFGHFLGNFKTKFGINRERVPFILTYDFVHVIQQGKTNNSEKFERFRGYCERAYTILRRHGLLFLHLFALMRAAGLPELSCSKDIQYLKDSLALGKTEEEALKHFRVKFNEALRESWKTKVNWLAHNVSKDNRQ

[3] = Oral bioavailability in BALB/C mouse; assay type: ADME, organism-based; settings: in vivo
[4] = Half life in BALB/C mouse; assay type: ADME, organism-based; settings: in vivo
[5] = biological target: T2, DNA-dependent protein kinase catalytic subunit (Homo sapiens, UniProt P78527); assay: Inhibition of DNA-PK (unknown origin)
[6] = biological target: Serine/threonine-protein kinase mTOR (Homo sapiens, UniProt P42345); assay: Inhibition of mTOR (unknown origin)
[7] = Oral bioavailability in mouse; assay type: ADME, organism-based; settings: in vivo
[8] = tested on: MDA-MB-361; assay: cells; settings: Homo sapiens
[9] = biological target: T2, DNA-dependent protein kinase catalytic subunit; assay: Inhibition of DNA-PK purified from HeLa nuclear extracts assessed as EPPLSQEAFADLWKKR peptide substrate phosphorylation
[10] = Inhibition of rapamycin-insensitive mTORC2 (unknown origin); set-up: species or system Homo sapiens
[11] = biological target: Phosphatidylinositol 4,5-bisphosphate 3-kinase catalytic subunit alpha isoform (Homo sapiens, UniProt P42336)
[12] = Half life in mouse plasma at 25 mg/kg single dose; assay type: ADME, organism-based; set-up: dose 25 mg/kg

T2 sequence (P78527 whole entry): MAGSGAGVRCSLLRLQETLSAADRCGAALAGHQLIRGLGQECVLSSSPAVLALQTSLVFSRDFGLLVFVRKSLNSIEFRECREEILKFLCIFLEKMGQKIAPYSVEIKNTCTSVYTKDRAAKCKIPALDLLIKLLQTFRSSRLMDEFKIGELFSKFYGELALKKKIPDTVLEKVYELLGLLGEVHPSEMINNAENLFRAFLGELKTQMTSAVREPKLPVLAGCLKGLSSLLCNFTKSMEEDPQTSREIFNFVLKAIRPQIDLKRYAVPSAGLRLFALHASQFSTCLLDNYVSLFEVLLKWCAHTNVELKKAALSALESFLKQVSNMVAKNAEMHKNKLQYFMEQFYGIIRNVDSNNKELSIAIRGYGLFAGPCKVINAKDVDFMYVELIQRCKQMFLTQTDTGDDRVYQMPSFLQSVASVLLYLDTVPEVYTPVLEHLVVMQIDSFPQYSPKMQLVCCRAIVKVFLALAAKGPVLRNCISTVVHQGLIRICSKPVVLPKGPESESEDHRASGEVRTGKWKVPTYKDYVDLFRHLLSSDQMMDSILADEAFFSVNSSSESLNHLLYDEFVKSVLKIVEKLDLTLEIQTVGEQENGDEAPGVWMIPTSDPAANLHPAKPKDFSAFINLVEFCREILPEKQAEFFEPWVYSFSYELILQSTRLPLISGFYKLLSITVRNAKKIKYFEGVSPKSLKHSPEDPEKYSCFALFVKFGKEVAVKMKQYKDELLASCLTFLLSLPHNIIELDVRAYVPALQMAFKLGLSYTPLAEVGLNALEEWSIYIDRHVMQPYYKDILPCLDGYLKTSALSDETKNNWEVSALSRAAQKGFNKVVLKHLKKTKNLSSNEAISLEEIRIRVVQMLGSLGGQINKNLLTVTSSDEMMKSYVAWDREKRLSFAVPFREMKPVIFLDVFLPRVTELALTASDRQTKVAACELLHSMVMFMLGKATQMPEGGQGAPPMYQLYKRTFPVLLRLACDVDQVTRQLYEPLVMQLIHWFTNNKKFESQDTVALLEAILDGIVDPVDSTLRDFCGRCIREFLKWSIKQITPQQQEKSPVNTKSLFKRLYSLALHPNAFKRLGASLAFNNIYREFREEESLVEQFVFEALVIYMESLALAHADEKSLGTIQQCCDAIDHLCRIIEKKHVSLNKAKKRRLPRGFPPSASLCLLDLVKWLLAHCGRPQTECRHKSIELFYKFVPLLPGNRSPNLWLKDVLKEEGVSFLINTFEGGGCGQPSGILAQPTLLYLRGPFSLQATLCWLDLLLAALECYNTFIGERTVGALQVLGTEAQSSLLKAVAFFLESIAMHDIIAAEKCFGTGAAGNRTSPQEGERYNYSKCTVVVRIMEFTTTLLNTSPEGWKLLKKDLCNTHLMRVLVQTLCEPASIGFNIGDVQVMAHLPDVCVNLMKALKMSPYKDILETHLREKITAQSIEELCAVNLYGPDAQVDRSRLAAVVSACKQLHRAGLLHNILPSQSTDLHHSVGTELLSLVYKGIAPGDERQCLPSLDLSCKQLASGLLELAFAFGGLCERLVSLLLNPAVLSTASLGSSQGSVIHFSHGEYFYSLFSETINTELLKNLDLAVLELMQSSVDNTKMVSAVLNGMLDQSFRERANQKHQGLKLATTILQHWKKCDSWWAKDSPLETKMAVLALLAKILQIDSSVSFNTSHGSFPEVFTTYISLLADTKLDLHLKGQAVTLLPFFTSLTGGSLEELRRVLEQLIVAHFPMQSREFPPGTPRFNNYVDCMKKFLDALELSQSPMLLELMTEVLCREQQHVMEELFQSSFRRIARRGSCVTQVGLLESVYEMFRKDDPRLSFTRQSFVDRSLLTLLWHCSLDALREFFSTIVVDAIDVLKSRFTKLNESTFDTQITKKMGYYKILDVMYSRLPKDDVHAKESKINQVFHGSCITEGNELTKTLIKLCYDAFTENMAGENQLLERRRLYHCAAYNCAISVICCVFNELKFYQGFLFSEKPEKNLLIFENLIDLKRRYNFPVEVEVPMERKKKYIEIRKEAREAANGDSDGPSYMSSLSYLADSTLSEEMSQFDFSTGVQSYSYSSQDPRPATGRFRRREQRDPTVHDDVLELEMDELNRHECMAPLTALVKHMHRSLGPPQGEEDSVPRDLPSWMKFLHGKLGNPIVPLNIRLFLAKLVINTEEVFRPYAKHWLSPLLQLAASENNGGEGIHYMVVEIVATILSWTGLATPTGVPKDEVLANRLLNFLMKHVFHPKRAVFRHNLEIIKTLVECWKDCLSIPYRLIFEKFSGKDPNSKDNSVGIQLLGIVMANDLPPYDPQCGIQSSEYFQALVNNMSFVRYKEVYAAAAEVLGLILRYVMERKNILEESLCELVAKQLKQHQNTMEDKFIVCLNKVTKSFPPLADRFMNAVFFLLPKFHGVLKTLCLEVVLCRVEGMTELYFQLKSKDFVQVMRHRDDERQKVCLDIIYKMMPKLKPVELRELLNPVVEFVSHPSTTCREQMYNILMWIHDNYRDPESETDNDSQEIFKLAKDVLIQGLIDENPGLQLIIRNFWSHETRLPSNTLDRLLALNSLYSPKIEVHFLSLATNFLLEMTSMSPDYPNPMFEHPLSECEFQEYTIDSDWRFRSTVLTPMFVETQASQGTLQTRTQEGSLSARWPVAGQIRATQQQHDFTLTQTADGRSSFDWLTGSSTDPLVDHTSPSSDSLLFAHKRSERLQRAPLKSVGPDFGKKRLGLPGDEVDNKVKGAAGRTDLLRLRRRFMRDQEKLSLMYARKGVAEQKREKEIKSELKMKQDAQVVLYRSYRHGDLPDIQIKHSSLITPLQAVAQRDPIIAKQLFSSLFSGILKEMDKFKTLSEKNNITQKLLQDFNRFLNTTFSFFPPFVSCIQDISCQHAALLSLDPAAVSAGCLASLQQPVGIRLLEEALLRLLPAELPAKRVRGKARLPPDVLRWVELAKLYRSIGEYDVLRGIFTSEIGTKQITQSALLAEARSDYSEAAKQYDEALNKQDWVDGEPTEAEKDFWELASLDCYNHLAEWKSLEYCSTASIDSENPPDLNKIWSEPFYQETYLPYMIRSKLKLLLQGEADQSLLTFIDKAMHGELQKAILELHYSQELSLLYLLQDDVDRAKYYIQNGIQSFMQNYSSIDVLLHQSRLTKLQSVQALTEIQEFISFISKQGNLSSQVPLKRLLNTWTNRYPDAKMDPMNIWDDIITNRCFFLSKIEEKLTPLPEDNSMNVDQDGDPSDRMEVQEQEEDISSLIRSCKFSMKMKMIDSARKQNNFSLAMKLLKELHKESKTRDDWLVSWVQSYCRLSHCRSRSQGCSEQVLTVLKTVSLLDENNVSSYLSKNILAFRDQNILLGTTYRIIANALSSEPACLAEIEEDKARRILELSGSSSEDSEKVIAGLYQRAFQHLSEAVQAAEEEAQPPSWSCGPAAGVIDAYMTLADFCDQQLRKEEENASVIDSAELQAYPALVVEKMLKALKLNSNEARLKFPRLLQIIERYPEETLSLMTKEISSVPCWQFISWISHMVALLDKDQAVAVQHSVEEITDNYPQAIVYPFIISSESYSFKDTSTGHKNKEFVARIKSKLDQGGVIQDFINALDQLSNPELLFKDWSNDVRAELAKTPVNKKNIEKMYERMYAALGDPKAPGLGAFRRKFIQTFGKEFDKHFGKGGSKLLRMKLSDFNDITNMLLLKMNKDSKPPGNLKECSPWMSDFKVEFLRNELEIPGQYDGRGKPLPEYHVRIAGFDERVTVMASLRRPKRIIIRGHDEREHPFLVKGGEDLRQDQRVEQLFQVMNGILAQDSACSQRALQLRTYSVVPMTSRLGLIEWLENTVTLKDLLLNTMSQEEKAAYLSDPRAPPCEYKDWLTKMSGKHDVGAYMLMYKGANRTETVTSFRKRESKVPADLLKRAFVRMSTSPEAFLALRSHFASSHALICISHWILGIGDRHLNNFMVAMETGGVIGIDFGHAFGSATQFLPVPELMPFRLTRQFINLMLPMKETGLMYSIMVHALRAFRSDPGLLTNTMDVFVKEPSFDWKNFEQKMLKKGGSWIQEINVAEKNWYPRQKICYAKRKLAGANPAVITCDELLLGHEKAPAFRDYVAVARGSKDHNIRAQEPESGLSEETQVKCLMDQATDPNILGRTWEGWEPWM
Phosphatidylinositol 4,5-bisphosphate 3-kinase catalytic subunit alpha isoform, sequence (P42336 whole entry, canonical isoform): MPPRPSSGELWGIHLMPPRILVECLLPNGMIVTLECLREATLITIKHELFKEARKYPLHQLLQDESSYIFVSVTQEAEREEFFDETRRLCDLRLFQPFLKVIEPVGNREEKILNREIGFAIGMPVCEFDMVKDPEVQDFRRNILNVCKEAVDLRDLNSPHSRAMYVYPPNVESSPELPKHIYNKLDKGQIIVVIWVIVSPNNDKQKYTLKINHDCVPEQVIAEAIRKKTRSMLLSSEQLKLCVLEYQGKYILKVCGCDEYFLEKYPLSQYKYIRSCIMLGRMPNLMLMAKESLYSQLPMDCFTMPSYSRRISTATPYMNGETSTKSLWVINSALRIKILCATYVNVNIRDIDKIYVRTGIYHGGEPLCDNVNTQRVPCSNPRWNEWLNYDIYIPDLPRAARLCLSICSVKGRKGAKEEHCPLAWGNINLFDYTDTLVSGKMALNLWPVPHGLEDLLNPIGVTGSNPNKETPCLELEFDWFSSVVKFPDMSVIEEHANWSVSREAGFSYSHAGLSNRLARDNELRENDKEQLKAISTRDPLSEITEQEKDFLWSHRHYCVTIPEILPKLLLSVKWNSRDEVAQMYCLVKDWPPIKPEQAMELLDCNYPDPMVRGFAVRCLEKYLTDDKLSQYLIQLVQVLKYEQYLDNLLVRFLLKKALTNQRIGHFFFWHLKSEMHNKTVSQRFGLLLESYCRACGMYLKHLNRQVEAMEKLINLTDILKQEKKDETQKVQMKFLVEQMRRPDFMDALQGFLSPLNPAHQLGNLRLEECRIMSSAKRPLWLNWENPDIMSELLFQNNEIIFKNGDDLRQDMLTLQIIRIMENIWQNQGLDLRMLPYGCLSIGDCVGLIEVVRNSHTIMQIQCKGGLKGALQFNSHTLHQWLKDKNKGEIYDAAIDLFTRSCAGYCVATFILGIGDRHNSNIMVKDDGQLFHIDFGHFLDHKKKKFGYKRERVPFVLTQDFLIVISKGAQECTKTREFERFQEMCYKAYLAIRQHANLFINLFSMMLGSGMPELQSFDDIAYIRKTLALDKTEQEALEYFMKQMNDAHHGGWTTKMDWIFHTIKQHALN

For `O=c1cc(N2CCOCC2)oc2c(-c3ccccc3)cccc12` [LY-294002], the IC50 [1] was 2500 nM and the IC50 [2] was 1600 nM.
With `Cc1nc2c(-c3cnc(N)nc3)nc(N3CCOCC3)nc2n1C(C)C` [VS-5584] the bioavailability [3] was 100% and the half-life [4] was 600 min.
`O=c1cc(N2CCOCC2)oc2c(-c3cccc4c3oc3ccccc34)cccc12` showed an IC50 [5] of 41 nM.
For `CCn1nnc2c(N3CCOCC3)nc(-c3ccc(NC(=O)Nc4ccc(C(=O)N5CCN(C)CC5)cc4)cc3)nc21`, the IC50 [6] was 3 nM, the bioavailability [7] was 88.6% and the IC50 [8] was 10 nM.
Work on `O=C(c1ccc(O)cc1)c1ccc(N2CCOCC2)cc1O` yielded an IC50 [9] of 35 nM.
Work on `Oc1cccc(-c2nc(N3CCOCC3)c3oc4ncccc4c3n2)c1` [PI-103] yielded an IC50 [10] of 83 nM.
For `Cc1cc(C(C)Nc2ccccc2)c2nc(N3CCOCC3)cc(=O)n2c1` (stereo not drawn), the IC50 [11] was > 1000 nM.
In the case of `Oc1ccc2nc(-c3ccccc3)nc(N3CCOCC3)c2c1`, the IC50 [11] is reported as 1300 nM.
For `COc1ccc2oc(=O)cc(N3CCOCC3)c2c1`, the IC50 [5] was 1200 nM.
`CN(C)C1CCN(C(=O)c2ccc(NC(=O)Nc3ccc(-c4nc(N5CCOCC5)nc(N5CCOCC5)n4)cc3)cc2)CC1` [GEDATOLISIB] gave a half-life [12] of 210 min.
Compound `O=c1cc(-c2ccccc2)oc2cc(N3CCOCC3)cc(O)c12` has an IC50 [9] of 34 nM.
Compound `O=c1cc(N2CCOCC2)nc2c(-c3cccc4c3sc3ccccc34)cccn12` has an IC50 [5] of 13 nM.
For `Cc1ccc2c(=O)cc(N3CCOCC3)oc2c1-c1cccc2c1sc1ccccc12`, the IC50 [5] was 5 nM and 14 nM.
Compound `CNC(=O)Nc1ccc(-c2nc(N3CCOCC3)nc3c2cnn3C2CCOCC2)cc1` has an IC50 [6] of 23 nM.
